Results taken from patent US8686036B2, “Methods of controlling heart rate while minimizing and/or controlling hypotension” (Baxter International Inc., priority 2011, dated 2014).
Where a name gives a salt, the structure may show the parent alone. Values belong to the molecule of their own block, whether it stands above or below them.

Tests used:
[1] = cited from earlier work
[2] = Superimposition of dog systolic blood pressure results with human meta-analysis (Yu et al.); format: in vivo; conditions: at a given dose, FIG. 13, human data of Yu et al.
Text: The esmolol doses administered to the dogs in the experiments described herein needed to be larger than typical clinical doses used in humans in order to increase repeatability and induce acute hypotension in close to 100% of the dogs by sufficiently increasing the effect level above background noise. To confirm that the results obtained herein with mongrel dogs are clinically relevant, data from the experimental results obtained herein were superimposed with the maximal weighted mean difference in systolic blood pressure results obtained by Yu et al. in a meta-analysis of randomized controlled clinical trials with esmolol hydrochloride (Yu et al., Anesth Analg. 2011 February; 112(2):267-81).

[3] = Anesthetized mongrel dog model of the hypotensive potential of esmolol infusions; format: in vivo; conditions: for decrease in mean arterial pressure (MAP) from pre-infusion baseline, percent change: high dose infusion protocols, FIG. 10: 2000 μg/kg/min RS, 1000 μg/kg/min S, 1000 μg/kg/min R
Experimental: A model system utilizing anesthetized mongrel dogs was established in order to predict the hypotensive potential of esmolol hydrochloride injection in human patients. One dog was administered a formulation containing racemic esmolol hydrochloride at a loading dose of 600 μg/kg/min for 3 minutes followed by a maintenance infusion of 300 μg/kg/min for 10 minutes (referred to as 600RS/300RS) followed by a washout period (FIG. 1). In this and subsequent figures, the duration of infusion of the various medicaments is indicated by a coded horizontal line, parallel to the time axis. This protocol was repeated by administering 2000 μg/kg/min for 3 minutes followed by a maintenance infusion of 1000 μg/kg/min for 10 minutes (referred to as 2000RS/1000RS) and then by administering 400 μg/kg/min for 3 minutes followed by a maintenance infusion of 200 μg/kg/min for 10 minutes (referred to as 400RS/200RS). Mean arterial blood pressure and heart rate were monitored throughout the experiment.
While the doses administered to the dogs in the experiments described herein were larger than typical clinical doses, the doses were administered in order to increase repeatability and induce acute hypotension in close to 100% of the dogs by sufficiently increasing the effect level above background noise. Moreover, relative to esmolol administration in humans, the dog model replicates within experimental error the same dependence of mean arterial blood pressure versus infusion rate. Therefore, the conclusions reached at these relatively higher dose levels in dogs are relevant to minimization of adverse effects at lower doses in humans.
In initial experiments, the hypotensive potential of a composition comprising the S-isomer of esmolol hydrochloride was compared to a composition comprising the racemic formulation. Mean arterial blood pressure, cardiac output, and systemic vascular resistance were monitored throughout the experiments. Cardiac output and systemic vascular resistance were evaluated to understand the cause of the hypotension (i.e., decrease in cardiac output and/or decrease in systemic vascular resistance).
Each of four mongrel dogs was administered increasing doses of esmolol hydrochloride (FIGS. 2-5). Two dogs (D00028 and DG0029) received 150 μg/kg/min of the S-isomer formulation until mean arterial pressure reached a steady state, at which time the animal was immediately switched over to 300 μg/kg/min of the racemic formulation (this protocol is referred to as 150S/300RS in FIGS. 3a and 4a). Once a steady state was reached the infusion was stopped and was followed by a washout period. A similar protocol was repeated in both dogs using 300 μg/kg/min of the S-isomer of esmolol followed by administration of 600 μg/kg/min of the racemic mixture of esmolol (this protocol is 300S/600RS in FIGS. 3b and 4b). A final protocol involved administration of 1000 μg/kg/min of the S-isomer of esmolol followed by administration of 2000 μg/kg/min of the racemic mixture of esmolol followed by 1000 μg/kg/min of the S-isomer of esmolol (this protocol is referred to as 1000S/2000RS/1000S in FIGS. 3c and 4c).
A similar series of protocols were repeated with the other two dogs (DG0027 and DG0030) except the racemic mixture of esmolol was administered before the S-isomer. In other words, 300 μg/kg/min of the racemic mixture of esmolol was administered, followed by administration of 150 μg/kg/min of the S-isomer of esmolol (this protocol is referred to as 300RS/150S in FIGS. 2a and 5a), 600 μg/kg/min of the racemic mixture of esmolol was administered, followed by administration of 300 μg/kg/min of the S-isomer of esmolol (this protocol is referred to as 600RS/300S in FIGS. 2b and 5b), and 2000 μg/kg/min of the racemic mixture of esmolol was administered, followed by administration of 1000 μg/kg/min of the S-isomer of esmolol, and then 2000 μg/kg/min of the racemic mixture of esmolol again (this protocol is referred to as 2000RS/1000S/2000RS in FIGS. 2c and 5c)]. […]

[4] = test system: isoproterenol-induced tachycardia; test: Isoproterenol challenge (isoproterenol-induced tachycardia) in dogs after esmolol infusion; format: in vivo, dog; conditions: for reduction in mean arterial pressure: 10 minutes
Experimental: The purpose of this experiment was to determine if the attenuated hypotension (as assessed by mean arterial blood pressure end point) observed in Example 2 following administration of the S-isomer was associated with reduced efficacy (i.e., ability to control isoproterenol-induced tachycardia) as compared with the racemic formulations.
One dog was administered a bolus dose of isoproterenol (0.25 μg/kg) to establish a baseline heart rate response (FIG. 6a). Isoproterenol is a non-selective […] adrenergic agonist capable of inducing tachycardia. After a washout period, the racemic formulation (RS) was administered at 90 μg/kg/min for 10 minutes immediately followed by an isoproterenol challenge. After a washout period, the S-isomer formulation (S) was administered at 45 μg/kg/min for 10 minutes immediately followed by another isoproterenol challenge. This protocol was repeated using 150 μg/kg/min S-isomer followed by 300 μg/kg/min racemic formulation (FIG. 6b) then 2000 μg/kg/min racemic formulation followed by 1000 μg/kg/min S-isomer (FIG. 6c).
The experimental protocol was carried out essentially as described in Example 3. In short, each dog was administered racemic esmolol (RS) at the indicated dose for 10 minutes immediately followed by an isoproterenol challenge (a bolus dose of isoproterenol at 0.25 μg/kg). After a washout period, the S-isomer formulation (S) was administered at an equitherapeutic dose for 10 minutes immediately followed by another isoproterenol challenge. This protocol was performed at 90 μg/kg/min RS/45 μg/kg/min S (5 dogs), 300 μg/kg/min RS/150 μg/kg/min S (1 dog), 600 μg/kg/min RS/300 μg/kg/min S (3 dogs), 1000 μg/kg/min RS/500 μg/kg/min S (4 dogs), and 2000 μg/kg/min RS/1000 μg/kg/min S (3 dogs).
In order to better estimate the true differential effect in hypotensive potential between racemic esmolol and the S-isomer of esmolol at the lower dose range, data from other dogs that were not part of the isoproterenol challenge experiments, but were otherwise treated identically, were combined with the data set from FIG. 12A and presented in FIG. 12B. The additional data points were only from those dogs where a stated dose was administered first or where a sufficient wash-out period preceded the stated dose as to avoid any confounding variables. […] Thus, the lack of significant differentiation in mean arterial pressure seen at the lower doses in FIG. 12A was likely due to the relatively smaller sample size and biological variability.

[5] = Anesthetized mongrel dog model of the hypotensive potential of esmolol infusions; format: in vivo
[6] = test system: beta-adrenergic; conditions: WO 88/01614; cited from earlier work
[7] = Example 1, one dog, 400RS/200RS, 600RS/300RS, 2000RS/1000RS

SMILES: COC(=O)CCc1ccc(OCC(O)CNC(C)C)cc1 (racemic) [esmolol hydrochloride, methyl-3-[4-(2-hydroxy-3-isopropylamino)propoxy]phenylpropionate hydrochloride]
patients who experienced hypotension ([1]; clinical trials, packaging insert): 20-50% | acute hypotension in patients of Asian ancestry ([1]; loading infusion 500 μg/kg body weight per minute, Ko et al.): all patients administered this dosage experienced acute hypotension | severity of clinical hypotension (systolic blood pressure) in human patients relative to the dog model [2]: more than two times as severe | heart rate response [3, 7]: dose-dependent reflex tachycardia | mean arterial blood pressure response [3, 7]: clear dose-dependent decrease in mean arterial blood pressure | mean arterial pressure response ([3]; Example 2, four dogs, 300, 600, 2000 μg/kg/min, before or after the S-isomer): dose-dependent decrease in mean arterial pressure in all four dogs | decrease in MAP from end of first infusion to end of second infusion ([3]; FIG. 11, initial state S-isomer formulation, then RS racemic mixture): 32% | decrease in mean arterial pressure (MAP) from pre-infusion baseline, percent change [3]: 40% | mean arterial blood pressure response ([4]; Example 3, one dog, RS 90, 300, 2000 μg/kg/min vs S 45, 150, 1000 μg/kg/min): greater dose-dependent decrease in mean arterial blood pressure relative to the S-isomer | reduction in mean arterial pressure ([4]; Example 5, infusion rate 1000 μg/kg/min): about 20 mmHg

decrease in mean arterial pressure (MAP) from pre-infusion baseline, percent change [3]: 19%
SMILES: COC(=O)CCc1ccc(OC[C@H](O)CNC(C)C)cc1 (single isomer, unassigned) [R-isomer]
ability to lower heart rate when experimentally increased ([3]; Examples 1-4): no apparent, inherent ability to lower heart rate | cardiovascular changes following administration ([5]; Example 4): qualitatively identical to those following the administration of the racemic formulation

increase in MAP from end of first infusion to end of second infusion ([3]; FIG. 11, initial state RS racemic mixture, then S-isomer): 34% | decrease in mean arterial pressure (MAP) from pre-infusion baseline, percent change [3]: 13% | hypotensive effect (reduction in mean arterial pressure) vs racemic esmolol ([4]; Example 5, doses greater than 600 μg/kg/min racemic esmolol/300 μg/kg/min S-isomer formulation): differed significantly | reduction in mean arterial pressure ([4]; Example 5, equitherapeutic dose 500 μg/kg/min): about 10 mmHg
SMILES: COC(=O)CCc1ccc(OC[C@@H](O)CNC(C)C)cc1.Cl (single isomer, unassigned) [S-isomer]
hypotension (mean arterial blood pressure) at the high dose infusion protocol ([3]; Example 2, 1000 μg/kg/min S-isomer vs 2000 μg/kg/min racemic mixture): significantly less hypotension relative to the racemic formulation | mean arterial blood pressure during the 1000S phase ([3]; Example 2, 2000RS/1000S/2000RS protocol, FIG. 2c): increased | mean arterial blood pressure at the high dose infusion rate relative to the racemic formulation ([5]; Example 4, 1000 μg/kg/min S after 2000 μg/kg/min RS): improved (or increased) | hypotension (mean arterial blood pressure) at the high infusion rate ([4]; Example 3, 1000 μg/kg/min S-isomer vs 2000 μg/kg/min racemic formulation): significantly less hypotension relative to the racemic formulation | efficacy in reducing isoproterenol-induced tachycardia ([4]; Example 3, equitherapeutic amounts (half the racemic dose)): same degree of efficacy in reducing isoproterenol-induced tachycardia as compared with the racemic formulation | percent reduction in heart rate following isoproterenol challenge vs racemic esmolol ([4]; Example 5, equitherapeutic dose (half the racemic dose), all doses, FIG. 12A): essentially identical | efficacy in reducing isoproterenol-induced tachycardia ([4]; Example 5, equitherapeutic doses, across all doses): same degree of efficacy in reducing isoproterenol-induced tachycardia as compared with the racemic formulation | difference in mean arterial pressure vs racemic esmolol, pooled data ([4]; FIG. 12B, 600 μg/kg/min racemic esmolol (7 dogs)/300 μg/kg/min S-isomer (5 dogs)): statistically significant difference in mean arterial pressure | potency as beta-adrenergic-blocking agent relative to an equivalent amount of the racemic mixture [6]: about twice
